Series [1] in a line: Repeated oral toxicity testing in monkeys. The series is classed as in vivo. To be noted: for safe dosage: under these test conditions. The method, then: Compound A was given orally to monkeys every day for 28 days at dosages of 1, 3, 10 and 30 mg/kg/day, and its toxicity was studied.
As a result, at dosages of 3 mg/kg/day or more, a decrease in serum cortisol, hyperplasia and increase in lipid droplets in the zona fasciculata in the adrenal cortex, and atrophy of the seminiferous tubules of the testes were observed; at the dosage of 30 mg/kg/day, prolongation of the QTc interval in the electrocardiogram (QT period corrected for heart rate) was also observed. Under these test conditions, it was considered that 1 mg/kg/day was a safe dosage.
Compound (+)-I was given orally to monkeys every day for 28 days at dosages of 1, 3, 10 and 30 mg/kg/day, and its toxicity studied.
Under these test conditions, it was considered that 30 mg/kg/day was safe dosage.

In series [2] the test system is Candida glabrata TIMM 1064. The series is described as follows: Measurement of Minimum Inhibitory Concentration (MIC), agar dilution. To be noted: SDA agar plates, 30°C. The series is classed as cell-based. The method, then: (§1) Measurement of Minimum Inhibitory Concentration (MIC)
(§2) Yeast-type fungi were cultured in Sabouraud dextrose broth (SDB, Difco) at 30°C for 24 hours, and 10⁵ cell/ml suspension for inoculation were prepared by diluting this with sterile physiological saline. In the case of filamentous fungi, 3 to 5 ml sterile physiological saline containing 0.05% (w/v) Tween 80 were added to mature Sabouraud dextrose agar culture medium (SDA, Difco) slant cultures (cultured for 2 to 3 weeks) in which conidia had formed abundantly, and the conidia were separated using an inoculating loop (Nunc Inc.). The conidial suspensions obtained were collected using a sterile pipette, and, after filtration through a double layer of sterile gauze to remove mycelial aggregates and agar fragments, were made into suspensions for inoculation by dilution of 10⁵ conidia/ml with sterile physiological saline. Meanwhile, as regards the drug-containing agar plates, a drug concentration of 0.005 to 10 mg/ml was prepared using dimethyl sulfoxide (DMSO, Wako Junyaku), and, by adding 99 parts of SDA to 1 part of this drug solution, two-fold serial dilution agar media of final dilutions 0.05 to 100 µg/ml were prepared. The fungal suspensions for inoculation prepared by the above method were inoculated onto these agar plates using a MIT-P microplanter (Sakuma Seisakusho).
(In agar dilution the substance is mixed into plates at graded concentrations.)

In series [3] the test system is Cryptococcus neoformans TIMM 0362. The series is described as above. Format: cell-based. The following applies: SDA agar plates, 30°C. The method, then:
as §1, §2

The subject of series [4] is Candida tropicalis TIMM 0313. Described as above. The series is classed as cell-based. To be noted: SDA agar plates, 30°C. The method, then: as §1, §2
Series [5] concerns Aspergillus fumigatus IFM 4942. Described as above. The following applies: SDA agar plates, 30°C. The series is classed as cell-based. The method, then:
as §1, §2

Series [6] relates to Trichophyton mentagrophytes TIMM 1188. The series is described as above. Format: cell-based. The following applies: SDA agar plates, 30°C. As for the experimental part: as §1, §2
Series [7] deals with Candida albicans IFM 40009. Described as above. The series is classed as cell-based. To be noted: 30°C, 48 hours. As for the experimental part:
as §1, §2

Series [8] has as its system Cryptococcus neoformans TIMM 0362. The series is described as follows: Effectiveness in treatment of in vivo infections (survival of infected mice). To be noted: TIMM0362; Cryptococcus neoformans TIMM 0362 i.v. infection, male ICR mice; dosed orally 1x (1 hour after infection); survival after 2 weeks. The method, then:
(§3) Measurement of Effectiveness in Treatment of In vivo Infections Using 10 animals per group, male ICR mice (body weight 18 to 20 g) were infected by intravenous injection of the test fungi as an aqueous suspension. The test compounds were given orally once 1 hour after infection, or once daily for 5 days starting from 1 hour after infection. After 2 weeks, the number of animals surviving was counted, and the dosage at which 50% of the animals survive (ED₅₀: mg/kg) was calculated using the Litchfield-Wilcoxon method.

The subject of series [9] is Aspergillus fumigatus IFM 4942. Described as above. To be noted: IFM4942; Aspergillus fumigatus IFM 4942 i.v. infection, male ICR mice; dosed orally 5x (once daily for 5 days); survival after 2 weeks. As for the experimental part: as §3
The subject of series [10] is Candida albicans IFM 40009. The description is as above. To be noted: IFM40009, Candida albicans IFM 40009 i.v. infection, male ICR mice, survival after 2 weeks. The method, then:
as §3

Series [11] can be described thus: Variation in the plasma concentrations in monkeys of the toxicity study. Format: in vivo. The following applies: repeated daily oral dosing for 28 days.
[12] abbreviates: every day for 28 days, 1, 3, 10 and 30 mg/kg/day.
Where [13] appears, read: Nakaseomyces glabratus, TIMM1064, 48 h, read-out: MIC.
The mark [14] stands for this setting: Cryptococcus neoformans, TIMM0362, 48 h, read-out: MIC.
Setting [15] is: Candida tropicalis, TIMM0313, 48 h, read-out: MIC.
[16] abbreviates: Aspergillus fumigatus, IFM4942, 48 h, read-out: MIC.
Setting [17] is: Trichophyton mentagrophytes, TIMM1188, 48 h, read-out: MIC.
Where [18] appears, read: IFM40009, SDA agar plates, read-out: MIC.
Setting [19] is: dosed orally 5x (once daily for 5 days).
The mark [20] stands for this setting: every day for 28 days, up to 30 mg/kg/day.
Setting [21] is: dosed orally 1x (1 hour after infection).

From patent EP0472392A2, “Optically active triazole derivatives and compositions” (priority 1990, dated 1992) come the findings set out here.

Converted amounts (≈) assume the structure as drawn. “Also recorded” adds a separate entry of the source. Where two headings read alike, the source gives them in different places. Bounds are passed on as bounds.

As a reminder, the MIC is the smallest concentration in the dilution series that meets the test's criterion for growth inhibition. For orientation: ED50 means the dose at which the effect has come halfway, by size or by number of responders. Read a low ED50 as an effect at a small dose. `OC(Cn1cncn1)(Cn1cnc(/C=C/c2ccc(OCC(F)(F)C(F)F)cc2)n1)c1ccc(F)cc1F` (racemic) [compound A, (±)-2-(2,4-difluorophenyl)-1-[3-[(E)-4-(2,2,3,3-tetrafluoropropoxy)styryl]-1H-1,2,4-triazol-1-yl]-3-(1H-1,2,4-triazol-1-yl)propan-2-ol]: the “dosage at which a decrease in serum cortisol was observed” value in series [1] (setting [12]) is recorded as no less than 3 mg/kg/day. Also, the “dosage at which atrophy of the seminiferous tubules of the testes was observed” value in [1] (setting [12]) was no less than 3 mg/kg/day. Moreover, the “dosage at which hyperplasia and increase in lipid droplets in the zona fasciculata in the adrenal cortex was observed” value in series [1] (every day for 28 days, 1, 3, 10 and 30 mg/kg/day, only slight for compound (+)-I) is no less than 3 mg/kg/day. In series [1] (every day for 28 days), the safe dosage is 1 mg/kg/day. The MIC in [2] (setting [13]) came to 1.56 µg/mL (≈ 2.9 µM); in [3] (setting [14]) it was 0.78 µg/mL (≈ 1.45 µM); in [4] (setting [15]), 12.5 µg/mL (≈ 23.2 µM); in series [5] (setting [16]) it was 12.5 µg/mL (≈ 23.2 µM); in series [6] (setting [17]) it was 0.39 µg/mL (≈ 0.724 µM); in [7] (setting [18]) it was 12.5 µg/mL (≈ 23.2 µM). For the same compound, the ED50 is 43.5 mg/kg in series [8], 53.6 mg/kg in series [9] and 1.7 mg/kg in series [10] (setting [19]). For the same compound, the “variation in the plasma concentrations with time (accumulation)” value in series [11] is “accumulates; also recorded: increased day-by day”.
On to `OC(Cn1cncn1)(Cn1cnc(/C=C/c2ccc(OCC(F)(F)C(F)F)cc2)n1)c1ccc(F)cc1F` (single isomer, unassigned; (+)) [Compound (+)-I, (+)-2-(2,4-difluorophenyl)-1-[3-[(E)-4-(2,2,3,3-tetrafluoropropoxy)styryl]-1H-1,2,4-triazol-1-yl]-3-(1H-1,2,4-triazol-1-yl)propan-2-ol], for which the “testicular toxicity (atrophy of the seminiferous tubules), finding in words” value in [1] (even at a dosage of 30 mg/kg/day) was “did not display”. The same compound gave a safe dosage in [1] (every day for 28 days) of 30 mg/kg/day. Moreover, the “electrocardiogram / cardiotoxicity (prolongation of the QTc interval), finding in words” value in series [1] (setting [20]) is on record as “no abnormalities in the electrocardiogram were seen; also recorded: did not display cardiotoxicity (prolongation of the QTc interval)”. Moreover, the “serum cortisol level (finding in words)” value in series [1] (setting [20]) is recorded as “no decrease in the serum cortisol level; also recorded: did not display”. Further, the MIC in [2] (48 hours, listed as COMP. (+)I) was 0.78 µg/mL (≈ 1.45 µM); in series [3] (48 hours, listed as COMP. (+)I) it was 0.39 µg/mL (≈ 0.724 µM); in [4] (48 hours, listed as COMP. (+)I), 12.5 µg/mL (≈ 23.2 µM); in series [5] (48 hours, listed as COMP. (+)I), 6.25 µg/mL (≈ 11.6 µM); in [6] (48 hours, listed as COMP. (+)I) it was 0.10 µg/mL (≈ 0.186 µM); in series [7] (setting [18]), 12.5 µg/mL (≈ 23.2 µM). Moreover, the ED50 came out at 19.7 mg/kg in series [8], 39.8 mg/kg in series [9], 2.6 mg/kg in series [10] (setting [21]) and 1 mg/kg in series [10] (setting [19]). The “variation in the plasma concentrations with time (accumulation)” value in [11] is “no day-by day increase in the plasma concentrations; also recorded: does not display accumulation”.
Turning to `OC(Cn1cncn1)(Cn1cnc(/C=C/c2ccc(OCC(F)(F)C(F)F)cc2)n1)c1ccc(F)cc1F` (single isomer, unassigned; (-)) [Compound (-)-I, (-)-2-(2,4-difluorophenyl)-1-[3-[(E)-4-(2,2,3,3-tetrafluoropropoxy)styryl]-1H-1,2,4-triazol-1-yl]-3-(1H-1,2,4-triazol-1-yl)propan-2-ol], the MIC in series [2] (48 hours, listed as COMP. (-)I) is greater than 100 µg/mL; in series [3] (48 hours, listed as COMP. (-)I), greater than 100 µg/mL; in [4] (48 hours, listed as COMP. (-)I), greater than 100 µg/mL; in series [5] (48 hours, listed as COMP. (-)I), greater than 100 µg/mL; in series [6] (48 hours, listed as COMP. (-)I), 50 µg/mL (≈ 92.9 µM); in series [7] (SDA agar plates), 12.5 µg/mL (≈ 23.2 µM).
In the case of `OC(Cn1cncn1)(Cn1cncn1)c1ccc(F)cc1F` [FLUCONAZOLE, 2-(2,4-difluorophenyl)-1,3-bis(1H-1,2,4-triazol-1-yl)-propan-2-ol], the MIC is 100 µg/mL (≈ 327 µM) in [2] (setting [13]); 50 µg/mL (≈ 163 µM) in [3] (setting [14]); greater than 100 µg/mL in series [4] (setting [15]); greater than 100 µg/mL in series [5] (setting [16]); 25 µg/mL (≈ 81.6 µM) in series [6] (setting [17]); greater than 100 µg/mL in series [7] (setting [18]). The ED50 in series [8] was greater than 100 mg/kg; in [9], 57.9 mg/kg; in series [10] (setting [21]) it was greater than 30 mg/kg; in series [10] (setting [19]) it was 3.6 mg/kg.
